# According to US20250212877A1, “SUGAR-CONTAINING COMPOSITION FOR FOLIAR SPRAY AND METHOD OF USING THE SAME” (priority 2022, published 2025):
# System: tomato leaf
# Test: Foliar absorption rate of sugar, Congo red method, tomato leaf
# Conditions: summary of TABLE 1 over tomato and strawberry leaves; no adjuvant
# Text: In glass greenhouse, cucumber (Korean White, made by Farm Hannong, Korea) and tomato (Seogwangtomato, made by Farm Hannong, Korea) seeds were sown to raise plants. The young plants were transplanted to a vinyl cup having a diameter of 10 cm and cucumber was cultivated up to 4.5-leaf stage and tomato was cultivated up to 6.5-leaf stage. Strawberry young plants (KINGSBERRY) were given from strawberry laboratory, put in each cup pot having a diameter of 10 cm and cultivated up to 6 to 8-leaf stage in the greenhouse. […] Acetonitrile and nonionized water were mixed at 3:7 (volume/volume) to prepare a 30% acetonitrile aqueous solution, 8 ml was put into a test tube having an outer diameter of 32 mm and a length of 200 mm and the test tube was closed with a rubber lid. The leaves sprayed with the sugar aqueous solution was picked, put and cleaned by reverse shaking at the speed of 60 rpm for 2 minutes. The cleaning solution was analyzed by high-performance liquid chromatography (HPLC) to quantify Congo red and sugar, and the sugar absorption rate was calculated by the following Equation 1.
smiles,measurement,value
OC[C@H]1O[C@@](CO)(O[C@H]2O[C@H](CO)[C@@H](O)[C@H](O)[C@H]2O)[C@@H](O)[C@@H]1O [sucrose],"Absorption by tomato leaves and strawberry leaves, maximum",≤ 1.3%
